Consider 59 molecules from patent US7998987B2, “Inhibitors of c-Met and uses thereof” (Vertex Pharmaceuticals Incorporated, priority 2005, dated 2011).

Structures are written as SMILES. Some results are limits rather than exact numbers.

c-Met, sequence (P08581 25-1390): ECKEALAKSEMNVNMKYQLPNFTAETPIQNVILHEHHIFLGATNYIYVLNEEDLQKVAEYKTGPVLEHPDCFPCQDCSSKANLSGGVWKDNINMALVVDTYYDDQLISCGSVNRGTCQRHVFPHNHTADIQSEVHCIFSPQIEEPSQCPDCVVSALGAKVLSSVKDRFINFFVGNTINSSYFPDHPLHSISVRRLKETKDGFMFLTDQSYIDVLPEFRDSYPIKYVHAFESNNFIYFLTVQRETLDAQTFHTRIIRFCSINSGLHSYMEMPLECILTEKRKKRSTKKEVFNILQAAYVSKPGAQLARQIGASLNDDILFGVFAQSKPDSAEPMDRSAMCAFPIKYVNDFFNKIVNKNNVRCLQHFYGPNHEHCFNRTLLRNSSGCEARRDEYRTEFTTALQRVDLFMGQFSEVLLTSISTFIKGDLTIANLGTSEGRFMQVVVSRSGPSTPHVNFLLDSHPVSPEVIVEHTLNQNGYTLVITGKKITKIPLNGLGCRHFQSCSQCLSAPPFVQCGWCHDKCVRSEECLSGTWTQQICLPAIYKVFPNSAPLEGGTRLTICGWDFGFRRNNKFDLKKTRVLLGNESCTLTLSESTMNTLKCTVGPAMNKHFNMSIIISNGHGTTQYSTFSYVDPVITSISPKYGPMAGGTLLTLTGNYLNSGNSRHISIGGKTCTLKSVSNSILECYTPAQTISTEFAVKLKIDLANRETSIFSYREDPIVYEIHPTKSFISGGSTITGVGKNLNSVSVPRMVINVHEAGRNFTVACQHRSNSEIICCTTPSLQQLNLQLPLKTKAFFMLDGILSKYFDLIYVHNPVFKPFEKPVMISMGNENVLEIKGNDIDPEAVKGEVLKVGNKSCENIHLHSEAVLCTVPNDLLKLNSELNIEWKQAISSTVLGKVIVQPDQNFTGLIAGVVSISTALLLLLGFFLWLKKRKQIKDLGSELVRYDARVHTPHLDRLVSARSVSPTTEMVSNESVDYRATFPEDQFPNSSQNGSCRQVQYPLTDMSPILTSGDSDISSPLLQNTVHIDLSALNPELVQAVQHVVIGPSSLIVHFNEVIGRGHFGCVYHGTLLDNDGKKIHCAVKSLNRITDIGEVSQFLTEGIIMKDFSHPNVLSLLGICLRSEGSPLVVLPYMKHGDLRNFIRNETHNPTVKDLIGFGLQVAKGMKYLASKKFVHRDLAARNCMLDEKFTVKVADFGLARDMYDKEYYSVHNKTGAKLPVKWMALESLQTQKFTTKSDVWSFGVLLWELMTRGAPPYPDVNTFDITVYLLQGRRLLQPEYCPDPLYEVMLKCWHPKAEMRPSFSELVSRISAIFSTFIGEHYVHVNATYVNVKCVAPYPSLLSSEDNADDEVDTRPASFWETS

The target of the first assay is c-Met (Homo sapiens, UniProt P08581). Description: Ki determination for the inhibition of c-Met kinase activity (standard coupled enzyme system). The assay is classed as biochemical. The note with it: coupled enzyme system, 200 μM ATP, 80 nM c-Met, 30° C.; read-out: c-Met Ki. As to the method:
Ki Determination for the Inhibition of c-Met
Reactions were carried out in a solution containing 100 mM HEPES (pH 7.5), 10 mM MgCl2, 25 mM NaCl, 300 μM NADH, 1 mM DTT, and 1.5% DMSO. Final substrate concentrations in the assay were 200 μM ATP (Sigma Chemicals, St Louis, Mo.) and 10 μM polyGluTyr (Sigma Chemical Company, St. Louis). Reactions were carried out at 30° C. and 80 nM c-Met. Final concentrations of the components of the coupled enzyme system were 2.5 mM phosphoenolpyruvate, 300 μM NADH, 30 μg/ml pyruvate kinase and 10 μg/ml lactate dehydrogenase.
An assay stock buffer solution was prepared containing all of the reagents listed above with the exception of ATP and a test compound of the present invention. […] The reaction was initiated by the addition of 20 μL of ATP (final concentration 200 μM). Rates of reaction were obtained using a Molecular Devices Spectramax plate reader (Sunnyvale, Calif.) over 10 minutes at 30° C. The Ki values were determined from the rate data as a function of inhibitor concentration.
Regarding `Oc1cccc2ccc(NCc3nnc4ccc(Nc5cccc(Cl)c5)nn34)nc12` [Compound 454], the Ki was over 2000 nM.

Consider `CCC(c1ccc(O)cc1)c1nnc2ccc(Nc3cccc(Cl)c3)nn12` (centres unmarked) [Compound 367], for which the Ki is under 100 nM.

In the case of `Fc1ccc(NCc2nnc3ccc(Nc4cccc(Cl)c4)nn23)c(Cl)c1` [Compound 342], the Ki was over 2000 nM.

As to `O=[N+]([O-])c1ccc(Cc2nnc3ccc(Nc4cccc(Cl)c4)nn23)cc1` [Compound 475], the inhibitory constant (Ki) is over 2000 nM.

With `CC(C)C(=O)N1CCCC(Nc2ccc3nnc(Cc4ccc(O)cc4)n3n2)C1` (centres unmarked) [Compound 327], the Ki is over 2000 nM.

Regarding `Fc1cccc(OCc2nnc3ccc(Nc4cccc(Cl)c4)nn23)c1` [Compound 377], the inhibition constant (Ki) was over 2000 nM.

For `CC(O)c1cccc(Nc2ccc3nnc(Cc4ccc(O)c(Cl)c4)n3n2)c1` (centres unmarked) [Compound 299], the Ki was 100 to 2000 nM.

Consider `Clc1cccc(Nc2ccc3nnc(COc4cccnc4Cl)n3n2)c1` [Compound 374], for which the inhibition constant (Ki) fell in the range of 100 to 2000 nM.

Take `Fc1ccc(Nc2ccc3nnc(C4(c5ccc6c(c5)OCO6)CC4)n3n2)cc1Cl` [Compound 427]: the Ki was in the range of 100 to 2000 nM.

As for `O=C(O)Cc1ccc(C2=Nn3c(Cc4ccc(O)cc4)nnc3SC2)s1` [Compound 539], the Ki fell in the range of 100 to 2000 nM.

Regarding `N#Cc1cccc(OCc2nnc3ccc(Nc4cccc(Cl)c4)nn23)c1` [Compound 471], the Ki is over 2000 nM.

`Oc1ccc(Cc2nnc3ccc(Nc4cccc(C(F)(F)F)c4)nn23)cc1F` [Compound 292]: the Ki is under 100 nM.

Take `CCc1cccc(Nc2ccc3nnc(Cc4ccc(O)c(Cl)c4)n3n2)c1` [Compound 290]: the Ki is 100 to 2000 nM.

For `NC(=O)c1cc(Cc2nnc3ccc(Nc4cccc(Cl)c4)nn23)ccc1F` [Compound 476], the Ki is over 2000 nM.

In the case of `O=C(Cc1ccccc1)N1CCC(Nc2ccc3nnc(Cc4ccc(O)cc4)n3n2)CC1` [Compound 325], the Ki lay in the range of 100 to 2000 nM.

As to `Cc1nc2cc(OCc3nnc4ccc(Nc5cccc(Cl)c5)nn34)ccc2s1` [Compound 431], the inhibition constant (Ki) was over 2000 nM.

For `CCc1nnc(Nc2ccc3nnc([C@@H](C)c4ccc(O)cc4)n3n2)s1` [Compound 515], the inhibitory constant (Ki) lay in the range of 100 to 2000 nM.

Take `CCOc1cccc(NCc2nnc3ccc(Nc4cccc(Cl)c4)nn23)c1` [Compound 339]: the Ki is over 2000 nM.

Regarding `Clc1cccc(Nc2ccc3nnc(Cc4ccc5c(c4)CCO5)n3n2)c1` [Compound 355], the inhibitory constant (Ki) was under 100 nM.

In the case of `Fc1ccc(C2(c3nnc4ccc(Nc5cccc(Cl)c5)nn34)CCCC2)cc1` [Compound 416], the inhibitory constant (Ki) is over 2000 nM.

Turning to `O=C(Cc1ccccc1)N1CCCC(Nc2ccc3nnc(Cc4ccc(O)cc4)n3n2)C1` (centres unmarked) [Compound 328], the inhibition constant (Ki) was over 2000 nM.

For `Clc1cccc(Nc2ccc3nnc(CSc4ccccc4)n3n2)c1` [Compound 387], the inhibitory constant (Ki) was over 2000 nM.

Turning to `CC(=O)N1CCC(Nc2ccc3nnc(Cc4ccc(O)cc4)n3n2)CC1` [Compound 323], the inhibitory constant (Ki) lay within 100 to 2000 nM.

Take `c1csc(C2=Nn3c(Cc4ccc5c(c4)OCO5)nnc3SC2)c1` [Compound 544]: the inhibitory constant (Ki) is under 100 nM.

As for `C[C@@H](c1ccc(O)cc1)c1nnc2ccc(Nc3ccc(F)c(Cl)c3)nn12` [Compound 426], the Ki was under 100 nM.

Take `Cc1cc(C)cc(Nc2ccc3nnc(Cc4ccc(O)cc4)n3n2)c1` [Compound 295]: the Ki was under 100 nM.

On to `Clc1cccc(Nc2ccc3nnc(CNc4ccc5c(c4)OCO5)n3n2)c1` [Compound 347], for which the Ki lay within 100 to 2000 nM.

The same assay, now with this note: coupled enzyme system, 200 μM ATP, 10 μM polyGluTyr, 80 nM c-Met, 30° C.; read-out: c-Met Ki.
`N#Cc1cccc(Nc2ccc3nnc(Cc4ccc5c(c4)OCO5)n3n2)c1` [Compound 221]: the Ki was under 100 nM.

`O=C1CCN(c2ccc3nnc(Cc4ccc(O)cc4)n3n2)CCN1` [Compound 190]: the Ki is 100 to 2000 nM.

`CC(c1ccc(O)cc1)c1nnc2sc(Nc3ccccc3Cl)nn12` (centres unmarked) [Compound 66]: the inhibition constant (Ki) is under 100 nM.

As for `C[C@@H](c1ccc(OC(=O)[C@@H](C)N)cc1)c1nnc2sc(Nc3cccc(Cl)c3)nn12` [Compound 167], the Ki is under 100 nM.

On to `Oc1ccc(Cc2nnc3sc(Nc4cccnc4)nn23)cc1F` [Compound 83], for which the Ki lay within 100 to 2000 nM.

Consider `CNC(=O)c1cccc(Nc2ccc3nnc(Cc4ccc(O)c(Cl)c4)n3n2)c1` [Compound 234], for which the inhibitory constant (Ki) is 100 to 2000 nM.

For `Oc1ccc(Cc2nnc3ccc(Nc4cccc(C(F)(F)F)c4)nn23)cc1Cl` [Compound 224], the inhibitory constant (Ki) was under 100 nM.

As for `Oc1ccc(Cc2nnc3sc(NCCN4CCOCC4)nn23)cc1` [Compound 15], the inhibition constant Ki is over 2000 nM.

Consider `Oc1ccc(Cc2nnc3ccc(NCCCn4ccnc4)nn23)cc1` [Compound 180], for which the Ki was in the range of 100 to 2000 nM.

Turning to `Oc1ccc(Cc2nnc3ccc(N4CCCC4c4ccc(F)cc4)nn23)cc1` (centres unmarked) [Compound 202], the Ki is over 2000 nM.

As for `O=c1ccn(Cc2nnc3ccc(-c4ccccc4)nn23)cc1` [Compound 218], the inhibition constant (Ki) is over 2000 nM.

In the case of `Cc1cccc(Nc2ccc3nnc(Cc4ccncc4)n3n2)c1` [Compound 231], the inhibition constant Ki is over 2000 nM.

Turning to `Oc1ccc(Cc2nnc3sc(Nc4cccc(F)c4)nn23)cc1Cl` [Compound 97], the Ki was under 100 nM.

On to `Cc1cccc(Nc2nn3c(Cc4ccc(O)cc4)nnc3s2)c1` [Compound 44], for which the Ki was under 100 nM.

For the molecule `CC(=O)Nc1ccc(NCc2nnc3ccc(-c4ccccc4)nn23)cc1` [Compound 209], the Ki was over 2000 nM.

For `c1csc(Cc2nn3c(Cc4ccc5c(c4)OCO5)nnc3s2)c1` [Compound 49], the Ki was over 2000 nM.

Turning to `Fc1cc(F)cc(Nc2ccc3nnc(Cc4ccc5c(c4)OCO5)n3n2)c1` [Compound 253], the Ki is under 100 nM.

For the molecule `Oc1ccc(Cc2nnc3sc(Nc4ccc(Cl)cc4)nn23)cc1F` [Compound 54], the inhibition constant (Ki) was under 100 nM.

As for `Oc1ccc(Cc2nnc3sc(Nc4cc(Cl)ccc4Cl)nn23)cc1` [Compound 77], the inhibitory constant (Ki) is under 100 nM.

For `COc1ccccc1Nc1nn2c(C(C)c3ccc(O)cc3)nnc2s1` (centres unmarked) [Compound 32], the Ki fell in the range of 100 to 2000 nM.

With `Oc1ccc(Cc2nnc3sc(Nc4cc(Cl)cc(Cl)c4)nn23)cc1` [Compound 50], the inhibitory constant (Ki) was under 100 nM.

With `CC(c1ccc(O)cc1)c1nnc2sc(Nc3ccc(Cl)cc3)nn12` (centres unmarked) [Compound 53], the Ki was under 100 nM.

As to `Clc1cc(Cl)cc(Nc2ccc3nnc(Cc4ccc5c(c4)OCO5)n3n2)c1` [Compound 246], the inhibition constant Ki was 100 to 2000 nM.

Consider `COC(=O)c1ccc(Nc2nn3c(Cc4ccc(O)cc4)nnc3s2)cc1` [Compound 16], for which the inhibition constant (Ki) is under 100 nM.

As for `COc1ccc(Nc2nn3c(Cc4ccc(O)c(F)c4)nnc3s2)cc1` [Compound 64], the inhibitory constant (Ki) lay within 100 to 2000 nM.

Regarding `Oc1ccc(Cc2nnc3sc(Nc4ccc5nsnc5c4)nn23)cc1` [Compound 70], the Ki was over 2000 nM.

As to `COc1ccc(Cc2nnc3sc(-c4ccccc4)nn23)cc1` [Compound 3], the Ki was over 2000 nM.

As to `C[C@@H](c1ccc(O)cc1)c1nnc2sc(Nc3ccc(Cl)cc3)nn12` [Compound 117], the Ki is under 100 nM.

For the molecule `Oc1cccc(CCc2nnc3sc(Nc4cccc(F)c4)nn23)c1` [Compound 95], the Ki was over 2000 nM.

For the molecule `OCc1cccc(Nc2ccc3nnc(Cc4ccc5c(c4)OCO5)n3n2)c1` [Compound 263], the inhibition constant Ki was in the range of 100 to 2000 nM.

As to `COc1ccc(Cc2nnc3ccc(Nc4cccc(C)c4)nn23)cc1` [Compound 229], the Ki was 100 to 2000 nM.

In the case of `CC(c1ccc(O)cc1)c1nnc2sc(C(=O)N3CCCC3)nn12` (centres unmarked) [Compound 89], the Ki is over 2000 nM.
